Literature values, collected in PMC4310643 (ACS Nano, 2015).

System: ABIR

Arg-Gly-Asp-DPhe-Lys (head to tail) [cRGDfK, cyclic peptide, arginine-glycine-aspartic acid-(D)phenylalanine-lysine]
binding affinity to ABIR: high binding affinity to ABIR
